Laboratory results reported in article PMC7013532, “Scenarios of Genes-to-Terpenoids Network Led to the Identification of a Novel α/β-Farnesene/β-Ocimene Synthase in Camellia sinensis” (International Journal of Molecular Sciences, 2020).

Target: TPS2 (Camellia sinensis, UniProt A0A3G3IRF8)
Test: SPME GC-MS product analysis
Format: biochemical
Conditions: pH 7.5, 50 mM Tris-HCl, 10 mM MgCl2, 5 mM DTT, 30 °C

TPS2, sequence (A0A3G3IRF8 entry or part of it): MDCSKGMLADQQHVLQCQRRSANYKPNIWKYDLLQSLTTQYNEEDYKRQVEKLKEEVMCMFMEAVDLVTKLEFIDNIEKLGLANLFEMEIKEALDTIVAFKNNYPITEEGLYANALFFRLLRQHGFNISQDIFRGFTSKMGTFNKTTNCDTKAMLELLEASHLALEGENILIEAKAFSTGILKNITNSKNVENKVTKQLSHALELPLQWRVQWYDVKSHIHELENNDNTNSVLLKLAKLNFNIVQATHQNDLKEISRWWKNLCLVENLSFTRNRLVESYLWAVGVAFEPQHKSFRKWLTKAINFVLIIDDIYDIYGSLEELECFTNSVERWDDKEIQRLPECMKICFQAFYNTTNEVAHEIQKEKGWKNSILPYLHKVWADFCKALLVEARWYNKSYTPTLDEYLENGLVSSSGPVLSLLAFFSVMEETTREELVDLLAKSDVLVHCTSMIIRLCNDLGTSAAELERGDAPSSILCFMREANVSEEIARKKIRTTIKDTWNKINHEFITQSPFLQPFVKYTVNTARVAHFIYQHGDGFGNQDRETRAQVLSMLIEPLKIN

Structure (SMILES)	SPME GC-MS product analysis (products beta-farnesene (main) and alpha-farnesene)	SPME GC-MS product analysis (product beta-ocimene)
CC(C)=CCC/C(C)=C/CC/C(C)=C/COP(=O)(O)OP(=O)(O)O [FPP]	The main product produced by TPS2 using FPP as a substrate was β-farnesene	–
CC(C)=CCC/C(C)=C/COP(=O)(O)OP(=O)(O)O [GPP]	–	β-ocimene is the resulting product when using GPP is used as the substrate
